Assay results taken from ChEMBL document CHEMBL3352214, “Studies on indolizines. Evaluation of their biological properties as microtubule-interacting agents and as melanoma targeting compounds” (Eur J Med Chem, 2015).

Key:
[1] = Inhibition of sheep brain tubulin polymerization by fluorescence assay; design: species or system Ovis aries
[2] = organism: Ovis aries; experiment: Inhibition of sheep brain tubulin polymerization at 100 uM by fluorescence assay
[3] = system: NCI/ADR-RES; experiment: Growth inhibition of human NCI/ADR-RES cells after 48 hrs by SRB assay; format: functional
[4] = system: MCF7; experiment: Growth inhibition of human MCF7 cells at 10^-5 M after 48 hrs by SRB assay; format: functional; settings: MCF7, 48 h, read-out: GI
[5] = Growth inhibition of human EKVX cells at 10^-5 M after 48 hrs by SRB assay; format: functional; settings: read-out: GI
[6] = Growth inhibition of human COLO205 cells after 48 hrs by SRB assay; format: functional; settings: COLO 205, 48 h
[7] = system: HL-60(TB); experiment: Growth inhibition of human HL-60(TB) cells after 48 hrs by SRB assay; format: functional; settings: HL-60, 48 h
[8] = system: SK-MEL-5; experiment: Growth inhibition of human SK-MEL-5 cells after 48 hrs by SRB assay; format: functional; settings: SK-MEL-5, 48 h
[9] = system: A498; experiment: Growth inhibition of human A498 cells after 48 hrs by SRB assay; format: functional; settings: A498, 48 h
[10] = system: MDA-MB-435; experiment: Growth inhibition of human MDA-MB-435 cells after 48 hrs by SRB assay; format: functional; settings: MDA-MB-435, 48 h
[11] = Growth inhibition of human PC3 cells at 10^-5 M after 48 hrs by SRB assay; format: functional; settings: PC-3, 48 h, read-out: GI
[12] = Growth inhibition of human HOP92 cells at 10^-5 M after 48 hrs by SRB assay; format: functional; settings: HOP-92, 48 h, read-out: GI
[13] = system: K562; experiment: Growth inhibition of human K562 cells after 48 hrs by SRB assay; format: functional; settings: K562, 48 h
[14] = Growth inhibition of human SF295 cells at 10^-5 M after 48 hrs by SRB assay; format: functional; settings: SF-295, 48 h, read-out: GI
[15] = system: KM12; experiment: Growth inhibition of human KM12 cells after 48 hrs by SRB assay; format: functional; settings: KM12, 48 h
[16] = system: Malme-3M; experiment: Growth inhibition of human MALME-3M cells at 10^-5 M after 48 hrs by SRB assay; format: functional; settings: read-out: GI
[17] = Growth inhibition of human OVCAR3 cells after 48 hrs by SRB assay; format: functional; settings: OVCAR-3, 48 h
[18] = system: SNB-75; experiment: Growth inhibition of human SNB75 cells at 10^-5 M after 48 hrs by SRB assay; format: functional; settings: SNB-75, 48 h, read-out: GI
[19] = Growth inhibition of human MOLT4 cells at 10^-5 M after 48 hrs by SRB assay; format: functional; settings: MOLT-4, 48 h, read-out: GI
[20] = system: MDA-MB-435; experiment: Cytotoxicity against human MDA-MB-435 cells assessed as cell growth at 10^-5 M after 48 hrs by SRB assay; format: functional; settings: MDA-MB-435, 48 h, read-out: Activity
[21] = system: SNB-75; experiment: Growth inhibition of human SNB75 cells after 48 hrs by SRB assay; format: functional; settings: SNB-75, 48 h
[22] = system: NCI-H522; experiment: Growth inhibition of human NCI-H522 cells after 48 hrs by SRB assay; format: functional; settings: NCI-H522, 48 h
[23] = system: HT-29; experiment: Growth inhibition of human HT-29 cells after 48 hrs by SRB assay; format: functional; settings: HT-29, 48 h
[24] = Growth inhibition of human PC3 cells after 48 hrs by SRB assay; format: functional; settings: PC-3, 48 h
[25] = system: MDA-MB-435; experiment: Growth inhibition of human MDA-MB-435 cells at 10^-5 M after 48 hrs by SRB assay; format: functional; settings: MDA-MB-435, 48 h, read-out: GI
[26] = system: A498; experiment: Cytotoxicity against human A498 cells assessed as cell growth at 10^-5 M after 48 hrs by SRB assay; format: functional; settings: A498, 48 h, read-out: Activity
[27] = system: T47D; experiment: Growth inhibition of human T47D cells at 10^-5 M after 48 hrs by SRB assay; format: functional; settings: Homo sapiens, T47D, 48 h; read-out: GI
[28] = Growth inhibition of human HCT116 cells at 10^-5 M after 48 hrs by SRB assay; format: functional; settings: HCT-116, 48 h, read-out: GI
[29] = system: MCF7; experiment: Growth inhibition of human MCF7 cells after 48 hrs by SRB assay; format: functional; settings: MCF7, 48 h
[30] = system: MDA-MB-468; experiment: Growth inhibition of human MDA-MB-468 cells after 48 hrs by SRB assay; format: functional; settings: MDA-MB-468, 48 h
[31] = system: A498; experiment: Growth inhibition of human A498 cells at 10^-5 M after 48 hrs by SRB assay; format: functional; settings: A498, 48 h, read-out: GI
[32] = system: HL-60(TB); experiment: Cytotoxicity against human HL-60(TB) cells assessed as cell growth at 10^-5 M after 48 hrs by SRB assay; format: functional; settings: HL-60, 48 h, read-out: Activity
[33] = system: HL-60(TB); experiment: Growth inhibition of human HL-60(TB) cells at 10^-5 M after 48 hrs by SRB assay; format: functional; settings: HL-60, 48 h, read-out: GI
[34] = system: NCI-H522; experiment: Cytotoxicity against human NCI-H522 cells assessed as cell growth at 10^-5 M after 48 hrs by SRB assay; format: functional; settings: NCI-H522, 48 h, read-out: Activity
[35] = Growth inhibition of human HCT15 cells at 10^-5 M after 48 hrs by SRB assay; format: functional; settings: HCT-15, 48 h, read-out: GI
[36] = system: SR; experiment: Growth inhibition of human SR cells after 48 hrs by SRB assay; format: functional
[37] = system: NCI-H522; experiment: Growth inhibition of human NCI-H522 cells at 10^-5 M after 48 hrs by SRB assay; format: functional; settings: NCI-H522, 48 h, read-out: GI
[38] = system: SF-295; experiment: Cytotoxicity against human SF295 cells assessed as cell growth at 10^-5 M after 48 hrs by SRB assay; format: functional; settings: SF-295, 48 h, read-out: Activity
[39] = system: CAKI-1; experiment: Growth inhibition of human Caki1 cells at 10^-5 M after 48 hrs by SRB assay; format: functional; settings: CAKI-1, 48 h, read-out: GI

| SMILES | IC50 [1] [µM] | inhibition [2] [%] | GI50 [3] [µM] | inhibition of growth at 10 µM [4] [%] | inhibition of growth at 10 µM [5] [%] | GI50 [6] [µM] | GI50 [7] [µM] | GI50 [8] [µM] | GI50 [9] [µM] | GI50 [10] [µM] | inhibition of growth at 10 µM [11] [%] | inhibition of growth at 10 µM [12] [%] | GI50 [13] [µM] | inhibition of growth at 10 µM [14] [%] | GI50 [15] [µM] | inhibition of growth at 10 µM [16] [%] | GI50 [17] [µM] | inhibition of growth at 10 µM [18] [%] | inhibition of growth at 10 µM [19] [%] | growth at 10 µM [20] [%] | also measured |
| --- | --- | --- | --- | --- | --- | --- | --- | --- | --- | --- | --- | --- | --- | --- | --- | --- | --- | --- | --- | --- | --- |
| CCOC(=O)c1cc(C(=O)c2cc(OC)c(OC)c(OC)c2)n2cccc(C)c12 | 98.2 | 55 | – | – | – | – | – | – | – | – | – | – | – | – | – | – | – | – | – | – | – |
| CCOC(=O)c1c(C(=O)OCC)c2c(C)cc(C)cn2c1C(=O)c1cc(OC)c(OC)c(OC)c1 | 93.2 | 58 | – | – | – | – | – | – | – | – | – | – | – | – | – | – | – | – | – | – | – |
| COC(=O)c1c(C(=O)OC)c2c(C)cc(C)cn2c1C(=O)c1ccc(OC)cc1 | 81.2 | 61 | – | – | – | – | – | – | – | – | – | – | – | – | – | – | – | – | – | – | – |
| CCOC(=O)c1cc(C(=O)c2cc(OC)c(OC)c(OC)c2)n2c(C)cccc12 | 8.02 | 83 | 0.065 | 86 | 57 | 0.108 | 0.034 | 0.061 | 0.052 | 0.03 | 77 | 26 | 0.053 | 100 | 0.06 | 63 | 0.04 | 88 | 96 | -48 | GI50 [21]: 0.121 µM; GI50 [22]: 0.066 µM; GI50 [23]: 0.04 µM; GI50 [24]: 0.122 µM; inhibition of growth at 10 µM [25]: 100%; growth at 10 µM [26]: -3%; inhibition of growth at 10 µM [27]: 63%; inhibition of growth at 10 µM [28]: 91%; GI50 [29]: 0.056 µM; GI50 [30]: 0.111 µM; inhibition of growth at 10 µM [31]: 100%; growth at 10 µM [32]: -42%; inhibition of growth at 10 µM [33]: 100%; growth at 10 µM [34]: -32%; inhibition of growth at 10 µM [35]: 78%; GI50 [36]: 0.033 µM; inhibition of growth at 10 µM [37]: 100%; growth at 10 µM [38]: -32%; inhibition of growth at 10 µM [39]: 63% |
| CCOC(=O)c1c(C(=O)OCC)c2cc(OC)ccn2c1C(=O)c1cc(OC)c(OC)c(OC)c1 | 90.4 | 57 | – | – | – | – | – | – | – | – | – | – | – | – | – | – | – | – | – | – | – |
| CCOC(=O)c1cc(C(=O)c2cc(OC)c(OC)c(OC)c2)n2cccc(C#N)c12 | 12.1 | 69 | 0.158 | 71 | 50 | 0.171 | 0.22 | 0.094 | 0.201 | 0.03 | 68 | 89 | 0.222 | 81 | 0.19 | 44 | 0.18 | 82 | 72 | -29 | GI50 [21]: 0.164 µM; GI50 [22]: 0.142 µM; GI50 [23]: 0.236 µM; GI50 [24]: 0.23 µM; inhibition of growth at 10 µM [25]: 100%; growth at 10 µM [26]: -13%; inhibition of growth at 10 µM [27]: 60%; inhibition of growth at 10 µM [28]: 79%; GI50 [29]: 0.252 µM; GI50 [30]: 0.332 µM; inhibition of growth at 10 µM [31]: 100%; growth at 10 µM [32]: -14%; inhibition of growth at 10 µM [33]: 100%; growth at 10 µM [34]: -10%; inhibition of growth at 10 µM [35]: 66%; GI50 [36]: 0.063 µM; inhibition of growth at 10 µM [37]: 100%; inhibition of growth at 10 µM [39]: 74% |
